Test results taken from the kinase profiling compilation of Christmann-Franck et al. (2016).

Columns and labels:
Experiment in all cases: KINOMEscan competition binding
Conditions in all cases: compound 1.0 µM
[1] = molecular target: NEK7 (human) (UniProt Q8TDX7)
[2] = molecular target: SRPK1 (human) (UniProt Q96SB4)
[3] = molecular target: STK10 (human) (UniProt O94804)
[4] = tested on: CPK1 (P.falciparum)
[5] = molecular target: CAMK1G (human) (UniProt Q96NX5)
[6] = molecular target: CDKL1 (human) (UniProt Q00532)
[7] = molecular target: PAK4 (human) (UniProt O96013)
[8] = tested on: EGFR (human), P00533 [746-750 del]
[9] = molecular target: PLK1 (human) (UniProt P53350)
[10] = molecular target: PRPF4B (human) (UniProt Q13523)
[11] = molecular target: SIK1 (human) (UniProt P57059)
[12] = tested on: ABL1 (human), P00519 [E255K]
[13] = molecular target: TNNI3K (human) (UniProt Q59H18)
[14] = molecular target: PKMYT1 (human) (UniProt Q99640)
[15] = molecular target: PRKCI (human) (UniProt P41743)
[16] = molecular target: WEE2 (human) (UniProt P0C1S8)
[17] = molecular target: STK38L (human) (UniProt Q9Y2H1)
[18] = molecular target: SIK3 (human) (UniProt Q9Y2K2)
[19] = molecular target: KDR (human) (UniProt P35968)
[20] = molecular target: ITK (human) (UniProt Q08881)
[21] = molecular target: MAPK14 (human) (UniProt Q16539)
[22] = molecular target: CAMK2G (human) (UniProt Q13555)
[23] = molecular target: TRPM6 (human) (UniProt Q9BX84)
[24] = molecular target: AKT3 (human) (UniProt Q9Y243)
[25] = tested on: EGFR (human), P00533 [752-759 del]
[26] = molecular target: STK33 (human) (UniProt Q9BYT3)
[27] = molecular target: CAMK2A (human) (UniProt Q9UQM7)
[28] = tested on: ABL1 (human), P00519 [M351T]
[29] = molecular target: ANKK1 (human) (UniProt Q8NFD2)
[30] = molecular target: IRAK1 (human) (UniProt P51617)
[31] = molecular target: SGK1 (human) (UniProt O00141)
[32] = tested on: EGFR (human), P00533 [A750P; 747-749 del]
[33] = molecular target: MAPK4 (human) (UniProt P31152)
[34] = molecular target: PRKG1 (human) (UniProt Q13976)
[35] = molecular target: ULK1 (human) (UniProt O75385)
[36] = molecular target: PRKACA (human) (UniProt P17612)
[37] = molecular target: CSNK1D (human) (UniProt P48730)
[38] = molecular target: ZAP70 (human) (UniProt P43403)
[39] = molecular target: PDPK1 (human) (UniProt O15530)

PAK4 (human), sequence (O96013 whole entry, looked up): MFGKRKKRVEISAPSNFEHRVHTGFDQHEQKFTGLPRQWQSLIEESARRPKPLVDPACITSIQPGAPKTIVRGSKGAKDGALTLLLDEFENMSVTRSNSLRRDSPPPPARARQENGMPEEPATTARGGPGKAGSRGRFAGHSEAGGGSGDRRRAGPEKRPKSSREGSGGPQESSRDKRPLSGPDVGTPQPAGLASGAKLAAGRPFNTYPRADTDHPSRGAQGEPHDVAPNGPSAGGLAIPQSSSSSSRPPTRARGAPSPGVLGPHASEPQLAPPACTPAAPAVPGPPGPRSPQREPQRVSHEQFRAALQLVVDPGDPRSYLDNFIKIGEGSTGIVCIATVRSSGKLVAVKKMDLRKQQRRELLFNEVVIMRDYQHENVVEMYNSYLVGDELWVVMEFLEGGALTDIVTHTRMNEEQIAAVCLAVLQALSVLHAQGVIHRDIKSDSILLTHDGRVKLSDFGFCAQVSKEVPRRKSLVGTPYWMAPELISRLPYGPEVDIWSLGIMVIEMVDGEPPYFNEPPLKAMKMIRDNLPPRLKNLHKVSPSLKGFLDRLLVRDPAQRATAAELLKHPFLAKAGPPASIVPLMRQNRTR
SIK1 (human), sequence (P57059 whole entry, looked up): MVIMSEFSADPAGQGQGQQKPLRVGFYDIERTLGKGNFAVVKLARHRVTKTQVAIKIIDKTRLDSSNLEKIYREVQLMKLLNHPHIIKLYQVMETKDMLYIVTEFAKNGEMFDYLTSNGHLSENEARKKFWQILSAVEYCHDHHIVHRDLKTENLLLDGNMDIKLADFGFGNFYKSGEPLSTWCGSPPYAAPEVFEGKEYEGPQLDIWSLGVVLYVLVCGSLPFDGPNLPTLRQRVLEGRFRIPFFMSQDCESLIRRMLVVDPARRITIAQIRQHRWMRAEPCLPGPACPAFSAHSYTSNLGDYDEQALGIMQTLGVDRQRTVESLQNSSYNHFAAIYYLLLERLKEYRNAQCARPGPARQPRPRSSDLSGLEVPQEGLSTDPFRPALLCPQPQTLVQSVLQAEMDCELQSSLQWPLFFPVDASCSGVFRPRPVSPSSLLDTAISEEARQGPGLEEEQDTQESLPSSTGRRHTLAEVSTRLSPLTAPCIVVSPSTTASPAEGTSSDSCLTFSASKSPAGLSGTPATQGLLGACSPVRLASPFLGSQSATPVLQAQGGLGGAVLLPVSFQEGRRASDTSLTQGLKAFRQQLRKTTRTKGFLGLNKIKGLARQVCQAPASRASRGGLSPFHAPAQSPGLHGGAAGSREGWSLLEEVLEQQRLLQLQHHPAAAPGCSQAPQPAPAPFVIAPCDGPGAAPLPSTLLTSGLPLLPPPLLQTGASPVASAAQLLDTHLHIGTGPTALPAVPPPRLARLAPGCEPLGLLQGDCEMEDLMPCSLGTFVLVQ
CAMK1G (human), sequence (Q96NX5 whole entry, looked up): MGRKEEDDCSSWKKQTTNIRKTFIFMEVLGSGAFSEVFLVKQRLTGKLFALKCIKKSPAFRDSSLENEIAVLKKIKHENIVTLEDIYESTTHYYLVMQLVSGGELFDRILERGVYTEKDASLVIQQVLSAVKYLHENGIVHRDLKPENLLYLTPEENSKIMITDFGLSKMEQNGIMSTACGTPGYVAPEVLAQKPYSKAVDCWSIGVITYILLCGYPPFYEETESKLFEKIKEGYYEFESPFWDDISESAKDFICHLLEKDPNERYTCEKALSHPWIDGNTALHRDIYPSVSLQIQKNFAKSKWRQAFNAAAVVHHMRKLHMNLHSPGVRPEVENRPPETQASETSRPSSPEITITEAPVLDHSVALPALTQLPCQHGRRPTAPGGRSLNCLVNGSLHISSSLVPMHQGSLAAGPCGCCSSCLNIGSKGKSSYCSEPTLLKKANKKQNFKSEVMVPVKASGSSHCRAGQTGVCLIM
PLK1 (human), sequence (P53350 whole entry, looked up): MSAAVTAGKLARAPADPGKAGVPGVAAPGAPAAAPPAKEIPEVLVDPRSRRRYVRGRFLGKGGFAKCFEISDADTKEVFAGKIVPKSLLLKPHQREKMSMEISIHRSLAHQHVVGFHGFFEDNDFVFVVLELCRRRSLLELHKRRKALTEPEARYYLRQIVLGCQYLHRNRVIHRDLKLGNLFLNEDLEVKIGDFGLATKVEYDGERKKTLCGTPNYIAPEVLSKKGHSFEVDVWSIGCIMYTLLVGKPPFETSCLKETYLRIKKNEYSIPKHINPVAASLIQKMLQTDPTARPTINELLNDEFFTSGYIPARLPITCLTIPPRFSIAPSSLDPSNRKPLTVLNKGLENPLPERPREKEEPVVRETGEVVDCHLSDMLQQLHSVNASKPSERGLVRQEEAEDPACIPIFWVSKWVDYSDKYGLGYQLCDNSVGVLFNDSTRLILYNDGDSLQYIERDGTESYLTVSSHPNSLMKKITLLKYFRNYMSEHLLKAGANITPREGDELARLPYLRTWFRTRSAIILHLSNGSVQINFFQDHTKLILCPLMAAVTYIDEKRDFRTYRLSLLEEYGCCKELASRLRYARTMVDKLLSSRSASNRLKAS
CAMK2A (human), sequence (Q9UQM7 whole entry, looked up): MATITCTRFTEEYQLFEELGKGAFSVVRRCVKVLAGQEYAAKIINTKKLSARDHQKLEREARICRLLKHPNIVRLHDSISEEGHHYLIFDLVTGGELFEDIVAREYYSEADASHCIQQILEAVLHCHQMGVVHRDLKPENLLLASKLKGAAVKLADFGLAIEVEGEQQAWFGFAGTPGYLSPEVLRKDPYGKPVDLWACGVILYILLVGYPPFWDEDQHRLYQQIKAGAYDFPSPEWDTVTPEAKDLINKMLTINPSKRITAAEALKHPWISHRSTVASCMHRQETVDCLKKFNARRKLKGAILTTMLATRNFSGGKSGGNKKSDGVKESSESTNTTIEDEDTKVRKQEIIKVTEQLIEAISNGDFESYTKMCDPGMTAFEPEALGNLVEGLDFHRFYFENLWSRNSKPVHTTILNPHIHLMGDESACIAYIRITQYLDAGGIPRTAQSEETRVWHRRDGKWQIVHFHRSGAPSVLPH
TRPM6 (human), sequence (Q9BX84 whole entry, looked up): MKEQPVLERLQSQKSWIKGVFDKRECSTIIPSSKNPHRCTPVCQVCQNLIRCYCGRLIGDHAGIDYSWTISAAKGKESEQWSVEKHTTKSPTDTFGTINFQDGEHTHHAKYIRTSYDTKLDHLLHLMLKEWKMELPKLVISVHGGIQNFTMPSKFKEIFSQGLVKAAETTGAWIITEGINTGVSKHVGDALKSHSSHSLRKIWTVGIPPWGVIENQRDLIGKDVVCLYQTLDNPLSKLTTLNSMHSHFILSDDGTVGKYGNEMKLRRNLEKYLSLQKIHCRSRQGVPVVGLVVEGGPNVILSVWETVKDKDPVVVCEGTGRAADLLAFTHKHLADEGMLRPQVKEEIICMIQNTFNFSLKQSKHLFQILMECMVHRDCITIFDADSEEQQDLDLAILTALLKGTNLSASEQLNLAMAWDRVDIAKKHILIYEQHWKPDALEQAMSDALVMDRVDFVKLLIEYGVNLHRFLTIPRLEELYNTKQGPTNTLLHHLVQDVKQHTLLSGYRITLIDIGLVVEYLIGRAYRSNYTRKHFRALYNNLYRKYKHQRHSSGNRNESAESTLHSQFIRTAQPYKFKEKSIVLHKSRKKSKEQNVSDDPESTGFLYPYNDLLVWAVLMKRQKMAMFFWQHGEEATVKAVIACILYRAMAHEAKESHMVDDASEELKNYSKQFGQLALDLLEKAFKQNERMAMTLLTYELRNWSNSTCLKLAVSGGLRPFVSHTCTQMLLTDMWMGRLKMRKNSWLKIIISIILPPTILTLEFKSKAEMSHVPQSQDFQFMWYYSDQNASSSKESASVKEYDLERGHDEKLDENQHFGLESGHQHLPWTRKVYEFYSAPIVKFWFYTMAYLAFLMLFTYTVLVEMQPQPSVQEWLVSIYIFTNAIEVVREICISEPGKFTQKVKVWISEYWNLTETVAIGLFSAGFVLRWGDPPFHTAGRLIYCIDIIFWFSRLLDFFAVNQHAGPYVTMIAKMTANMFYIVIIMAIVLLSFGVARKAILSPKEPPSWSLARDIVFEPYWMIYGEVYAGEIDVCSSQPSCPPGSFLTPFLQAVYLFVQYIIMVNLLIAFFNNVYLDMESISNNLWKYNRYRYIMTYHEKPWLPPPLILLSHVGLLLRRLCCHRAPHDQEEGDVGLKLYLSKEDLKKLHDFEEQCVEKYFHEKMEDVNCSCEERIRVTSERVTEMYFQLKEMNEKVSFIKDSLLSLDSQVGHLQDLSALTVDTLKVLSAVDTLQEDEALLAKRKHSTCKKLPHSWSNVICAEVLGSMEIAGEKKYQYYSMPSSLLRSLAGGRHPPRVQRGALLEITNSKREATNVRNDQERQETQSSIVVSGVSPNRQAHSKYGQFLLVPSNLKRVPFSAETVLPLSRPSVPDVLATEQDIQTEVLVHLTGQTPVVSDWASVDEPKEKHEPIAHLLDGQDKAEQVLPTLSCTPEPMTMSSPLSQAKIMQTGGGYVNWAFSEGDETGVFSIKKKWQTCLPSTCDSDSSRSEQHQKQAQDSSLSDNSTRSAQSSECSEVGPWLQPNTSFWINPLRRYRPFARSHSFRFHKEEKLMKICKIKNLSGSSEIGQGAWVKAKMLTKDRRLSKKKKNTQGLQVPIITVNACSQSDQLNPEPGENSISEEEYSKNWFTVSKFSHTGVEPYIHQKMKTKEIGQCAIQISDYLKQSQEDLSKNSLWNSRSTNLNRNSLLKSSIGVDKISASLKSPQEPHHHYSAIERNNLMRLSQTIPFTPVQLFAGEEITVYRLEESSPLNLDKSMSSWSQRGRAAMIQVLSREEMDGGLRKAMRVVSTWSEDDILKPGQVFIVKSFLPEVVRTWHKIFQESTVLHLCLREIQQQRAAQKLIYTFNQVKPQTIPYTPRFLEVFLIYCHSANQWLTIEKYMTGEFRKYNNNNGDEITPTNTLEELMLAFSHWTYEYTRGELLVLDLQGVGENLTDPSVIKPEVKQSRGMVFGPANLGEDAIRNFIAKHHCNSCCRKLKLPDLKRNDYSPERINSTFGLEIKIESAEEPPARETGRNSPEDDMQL

`CNc1nc(Nc2ccc(C(=O)N3CCOCC3)cc2OC)ncc1Cl` showed a kinase still bound, per cent of control [1] of 88%, a kinase still bound, per cent of control [2] of 81% and a kinase still bound, per cent of control [3] of 100%. For the same compound, the kinase still bound, per cent of control [4] was 78%, the kinase still bound, per cent of control [5] was 96% and the residual activity [6] was 100%. The kinase still bound, per cent of control [7] was 100%, the kinase still bound, per cent of control [8] was 88% and the kinase still bound, per cent of control [9] was 100%. It also gave a kinase still bound, per cent of control [10] of 98%, a kinase still bound, per cent of control [11] of 100% and a kinase still bound, per cent of control [12] of 52%. For the same compound, the kinase still bound, per cent of control [13] was 54%, the kinase still bound, per cent of control [14] was 97% and the kinase still bound, per cent of control [15] was 100%. It also gave a kinase still bound, per cent of control [16] of 95%, a kinase still bound, per cent of control [17] of 86% and a kinase still bound, per cent of control [18] of 100%. For the same compound, the kinase still bound, per cent of control [19] was 87%, the kinase still bound, per cent of control [20] was 100% and the kinase still bound, per cent of control [21] was 100%. For the same compound, the kinase still bound, per cent of control [22] was 93%, the kinase still bound, per cent of control [23] was 87% and the kinase still bound, per cent of control [24] was 81%. For the same compound, the kinase still bound, per cent of control [25] was 100%, the kinase still bound, per cent of control [26] was 38% and the kinase still bound, per cent of control [27] was 76%. For the same compound, the kinase still bound, per cent of control [28] was 97%, the kinase still bound, per cent of control [29] was 100% and the kinase still bound, per cent of control [30] was 100%. For the same compound, the kinase still bound, per cent of control [31] was 82%, the kinase still bound, per cent of control [32] was 100% and the kinase still bound, per cent of control [33] was 100%. It also gave a kinase still bound, per cent of control [34] of 82%, a kinase still bound, per cent of control [35] of 100% and a residual activity [36] of 100%. The residual activity [37] was 100%, the kinase still bound, per cent of control [38] was 92% and the kinase still bound, per cent of control [39] was 95%.
